Results taken from patent publication US11312727B1, “Macrocyclic flu endonuclease inhibitors” (Janssen BioPharma, Inc., priority 2018, dated 2022).

How the values were obtained:
[1] = tested on: Influenza strain A549 A/WSN/33 (H1N1); test: microbe, parasite or virus in culture; assay type: cell-based; details: Influenza A virus, A549, 20 h, A549 cells, influenza A/WSN/33 (H1N1), 20 hours incubation; read-out: A549_A(H1N1) EC50
in vitro = details: human, CC50, uninfected A549 cells, CellTiter-Glo

Compound | EC50 [1] [nM] | CC50 (in vitro) [nM]
O=C1c2c(O)c(=O)ccn2N2CN1C1(/C=C/COc3c(F)cccc3[C@H]2c2ccccc2)CCC1 (single isomer, unassigned) [Compound 145A, (18′*R,E)-4′-fluoro-12′-hydroxy-18′-phenyl-6′H,18′H-spiro[cyclobutane-1,9′-[10,17]methanobenzo[b]pyrido[1,2-f][1]oxa[5,6,9]triazacyclotridecine]-11′,13′-dione] | 3.1 | > 100
O=C1c2c(O)c(=O)ccn2N2CN1C/C=C\COc1cc(Cl)ccc1[C@@H]2c1ccccc1 (single isomer, unassigned) [Compound 72B, (18*S,Z)-3-chloro-12-hydroxy-18-phenyl-6,9-dihydro-18H-10,17-methanobenzo[b]pyrido[1,2-f][1]oxa[5,6,9]triazacyclotridecine-11,13-dione] | 8 | > 2000
O=C1c2c(O)c(=O)ccn2N2CN1C/C=C\COc1cc(F)c(F)cc1[C@@H]2c1ccccc1 (single isomer, unassigned) [Compound 41B, (18*S,Z)-2,3-difluoro-12-hydroxy-18-phenyl-6,9-dihydro-18H-10,17-methanobenzo[b]pyrido[1,2-f][1]oxa[5,6,9]triazacyclotridecine-11,13-dione] | 6 | > 2000
CC[C@@H]1/C=C/COc2cc(Cl)ccc2[C@@H](c2ccccc2)N2CN1C(=O)c1c(O)c(=O)ccn12 (single isomer, unassigned) [Compound 97AA] | 5.8 | > 1000
O=C1c2c(O)c(=O)ccn2N2CN1CCC/C=C\c1ccccc1[C@H]2c1ccccc1 (single isomer, unassigned) [Compound 54A, (16*R,*Z)-4-hydroxy-16-phenyl-7,8,9,16-tetrahydro-6,17-methanobenzo[k]pyrido[1,2-b][1,2,5]triazacyclotridecine-3,5-dione] | > 1000 | > 2000
O=C1c2c(O)c(=O)ccn2N2CN1CCC=CCc1ccccc1C2c1ccccc1 (stereo not drawn) [Compound 1, 4-hydroxy-16-phenyl-7,8,11,16-tetrahydro-6,17-methanobenzo[k]pyrido[1,2-b][1,2,5]triazacyclotridecine-3,5-dione] | 43 | > 2000
O=C1c2c(O)c(=O)ccn2N2CN1C/C=C/COCc1ccccc1C2c1ccccc1 (stereo not drawn) [Compound 17, (E)-15-hydroxy-2-phenyl-12,13,14,16-tetrahydro-11H-5-oxa-1(1,3)-pyrido[2,1-f][1,2,4]triazina-3(1,2)-benzenacyclononaphan-7-ene-14,16-dione] | 77 | > 20000
CC[C@@H]1/C=C/COc2ccccc2[C@H](c2ccccc2)N2CN1C(=O)c1c(O)c(=O)ccn12 [Compound 39AA, (9R,18S,E)-9-ethyl-12-hydroxy-18-phenyl-6,9-dihydro-18H-10,17-methanobenzo[b]pyrido[1,2-f][1]oxa[5,6,9]triazacyclotridecine-11,13-dione] | > 1000 | > 2000
O=C1c2c(O)c(=O)ccn2N2CN1C/C=C\CCc1ncccc1[C@H]2c1ccccc1 (single isomer, unassigned) [Compound 24A, (18*R,*Z)-12-hydroxy-18-phenyl-5,6,9,18-tetrahydro-10,17-methanodipyrido[1,2-b:2′,3′-k][1,2,5]triazacyclotridecine-11,13-dione] | 39600 | > 10000
COC[C@H]1N2C/C=C\COc3ccccc3[C@H](c3ccccc3)N1n1ccc(=O)c(O)c1C2=O (single isomer, unassigned) [Compound 109B, (18*S,19*S,*Z)-12-hydroxy-19-(methoxymethyl)-18-phenyl-6,9-dihydro-18H-10,17-methanobenzo[b]pyrido[1,2-f][1]oxa[5,6,9]triazacyclotridecine-11,13-dione] | > 100 | > 200
O=C1c2c(O)c(=O)ccn2N2CN1C/C=C\COc1cccc3c1[C@H]2c1ccccc1SC3 [Compound 46B, (21S,Z)-16-hydroxy-6,10,13,21a-tetrahydro-7,8-(epiprop[1]en[1]yl[3]ylidene)-14,21-methanobenzo[6,7]thiepino[4,5-c]pyrido[1,2-f][1]oxa[5,6,9]triazacyclotridecine-15,17-dione] | 3 | > 100
C[C@@H]1/C=C\COc2cccc3c2[C@@H](c2ccccc2SC3)N2CN1C(=O)c1c(O)c(=O)ccn12 (single isomer, unassigned) [Compound 138AB, (13*R,21a*S,Z)-16-hydroxy-13-methyl-6,10,13,21a-tetrahydro-7,8-(epiprop[1]en[1]yl[3]ylidene)-14,21-methanobenzo[6,7]thiepino[4,5-c]pyrido[1,2-f][1]oxa[5,6,9]triazacyclotridecine-15,17-dione] | 1.5 | > 50
O=C1c2c(O)c(=O)ccn2N2CN1CC/C=C/CCOc1ccccc1[C@H]2c1ccccc1 (single isomer, unassigned) [Compound 65A, (2*R,*Z)-15-hydroxy-2-phenyl-12,13,14,16-tetrahydro-11H-4-oxa-1(1,3)-pyrido[2,1-f][1,2,4]triazina-3(1,2)-benzenacyclodecaphan-7-ene-14,16-dione] | > 5000 | > 10000
O=C1c2c(O)c(=O)ccn2N2CN1C/C=C/CCc1ccccc1[C@@H]2c1ccccn1 [Compound 43B, (17R,E)-4-hydroxy-16-(pyridin-2-yl)-7,10,11,16-tetrahydro-6,17-methanobenzo[k]pyrido[1,2-b][1,2,5]triazacyclotridecine-3,5-dione] | > 1000 | > 2000
O=C1c2c(O)c(=O)ccn2N2CN1CC/C=C/CCc1ccccc1C2c1ccccc1 (stereo not drawn) [Compound 14, (*E)-15-hydroxy-2-phenyl-12,13,14,16-tetrahydro-11H-1(1,3)-pyrido[2,1-f][1,2,4]triazina-3(1,2)-benzenacyclononaphan-6-ene-14,16-dione] | 48 | > 4000
O=C1c2c(O)c(=O)ccn2N2CN1C1(/C=C/COc3c(ccc(F)c3F)[C@H]2c2ccccc2)CCC1 [Compound 146A, (18′R,E)-3′,4′-difluoro-12′-hydroxy-18′-phenyl-6′H,18′H-spiro[cyclobutane-1,9′-[10,17]methanobenzo[b]pyrido[1,2-f][1]oxa[5,6,9]triazacyclotridecine]-11′,13′-dione] | 0.65 | > 100
O=C1c2c(O)c(=O)ccn2N2CN1C[C@H]1C[C@@H]1COc1c(ccc(F)c1F)[C@H]2c1ccccc1 (single isomer, unassigned) [Compound 139BA, (1a*S,8*R,17a*S)-4,5-difluoro-14-hydroxy-8-phenyl-1a,2,17,17a-tetrahydro-1H,8H-9,16-methanobenzo[b]cyclopropa[k]pyrido[1,2-f][1]oxa[5,6,9]triazacyclotridecine-13,15-dione] | 44.6 | > 100
O=C1c2c(O)c(=O)ccn2N2CN1C[C@@H]1C[C@H]1COc1ccccc1[C@@H]2c1ccccc1 (single isomer, unassigned) [Compound 80AB, (1a*R,8*S,17a*R)-14-hydroxy-8-phenyl-1a,2,17,17a-tetrahydro-1H,8H-9,16-methanobenzo[b]cyclopropa[k]pyrido[1,2-f][1]oxa[5,6,9]triazacyclotridecine-13,15-dione] | 66 | > 10000
